“And” between values parts separate entries of the source, which are not always exact repeats. Equal values may be shown once. “Also recorded” adds a separate entry of the source.
How the values were obtained:
[1] = tested on: mouse organotypic cerebellar slices; assay: Remyelination of organotypic cerebellar slices after LPC demyelination (Mbp mRNA by quantitative PCR); assay type: cell-based; details: LPC 0.4 mg/ml, then treatment in serum-free culture medium for 14-16 days; barbadin 16 µM, 7α,25OHC 0.1 µM, NIBR189 10 µM; concentration of CF3-7α,25OHC not given; vs untreated LPC slices
Protocol: Organotypic cerebellar slices were sampled from ten-day old mice and then grown in an incubator for 14 days. After 14 days the myelin was chemically removed with LPC (0.4 mg/ml). Following the removal of the myelin sheaths, the slices were treated with: • 1. the control group: regular culture medium, without LPC • 2. LPC, then on serum-free culture medium for 14-16 days • 3. LPC followed by barbadin 16 µM in serum-free culture medium for 14-16 days • 4. LPC followed by 7α,25OHC 0.1 µM in serum-free culture medium for 14-16 days • 5. LPC followed by NIBR189 10 µM in serum-free culture medium for 14-16 days • 6. LPC followed by barbadin 16 µM + 7α,25OHC 0.1 µM in serum-free culture medium for 14-16 days
Once the experiment was completed (remyelination for 14-16 days) the slices were collected and MBP mRNA levels were measured by the PCR quantitative method. In the mouse organotypic cerebellar slices in which myelin sheaths were chemically removed with lysophosphatidylcholine (LPC) spontaneous myelin regeneration took place except for the slices treated with a selective EBI2 receptor antagonist (NIBR189). The results once again reveal key significance of EBI2 intracellular signalling for myelin regeneration. […] Barbadin, which inhibits internalisation of the EBI2 receptor, is necessary to achieve the therapeutic effect (faster remyelination) in the case of non-modified oxysterol (Fig 1 and Fig 2a).

[2] = tested on: Ebi2 receptor; assay: Ebi2 mRNA level in the cerebellum, cuprizone model; assay type: in vivo, mice; details: during remyelination in the cuprizone model
[3] = tested on: Ch25h, Cyp7b1, Hsd3b7; assay: mRNA level of synthesizing and degrading enzymes in the cerebellum, cuprizone model; assay type: in vivo, mice
[4] = tested on: white blood cells; assay: Cuprizone model: blood morphology (white blood cell counts); assay type: in vivo, mice
Protocol: C (Fig 7) or #3 (Fig 8 and 9) vehicle control group - the mice were fed with chow containing cuprizone for 9 weeks, and then with regular chow without cuprizone for another 2 weeks. Over the 2 weeks on regular chow the mice in the vehicle control group were first injected vehicle #1: DMSO (intraperitoneal injection), 150 µl once a day, and then vehicle #2: canola oil, subcutaneously, 150 µl once a day.
#4 (Fig 8 and 9) barbadin control group - the mice were fed with chow containing cuprizone for 9 weeks, and then with regular chow without cuprizone for another 2 weeks. Over the 2 weeks on regular chow the mice in the group were injected barbadin 0.3 mg/kg, intraperitoneally, 150 µl once a day, and then vehicle #2: canola oil, subcutaneously, 150 µl once a day.
E (Fig 7) or #5 experimental group with oxysterol CF3-7α,25OHC - the mice were fed with chow containing cuprizone for 9 weeks, and then with regular chow without cuprizone for another 2 weeks. Over the 2 weeks on regular chow the mice in the group were injected vehicle #1: DMSO, intraperitoneally, 150 µl once a day, and CF3-7α,25OHC, dose: 20 mg/kg, subcutaneously, 150 µl once a day.
#6 (Fig 8 and 9) experimental group with barbadin + oxysterol CF3-7α,25OHC - the mice were fed with chow containing cuprizone for 9 weeks, and then with regular chow without cuprizone for another 2 weeks. Over the 2 weeks on regular chow the mice in the group were injected barbadin, 0.3 mg/kg, intraperitoneally, 150 µl once a day, and then one hour following the barbadin injection they were injected CF3-7α,25OHC, dose: 20 mg/kg, subcutaneously, 150 µl once a day.
The blood from the heart was sampled after the mice had been euthanised, and blood morphology test was performed using a standard diagnostic analyser. […] The lymphocyte count in peripheral blood of the mice which had been injected with CF3-7α,25OHC was lower by 50% compared to the control group of mice injected with vehicles (gr. #3 or C). The specific action of CF3-7α,25OHC leading to reduction of the lymphocyte count in blood finds confirmation in the results obtained for the mice of groups #4 (or D) and #6 (or F). Compared to the control group, the lymphocyte count in blood in the group of mice injected with barbadin (#4 or D) was lower only by 21%, and in the group of mice injected with barbadin + CF3-7α,25OHC by 7%. Following interaction with CF3-7α,25OHC, barbadin blocks internalisation of the EBI2 receptor from the cell membrane. The absence of any significant effect related to the treatment with barbadin or barbadin + CF3-7α,25OHC indicates a specific action of CF3-7α,25OHC on the EBI2 receptor and the consequential effects of that action, namely reduction of the count of circulating lymphocytes in blood. Moreover, the number of monocytes in group #5 (or E: mice treated with CF3-7α,25OHC) was lower by as much as 66% and the total leukocyte count (lymphocytes and monocytes included) was also substantially lower (by 51%), though only in the group of mice injected with CF3-7α,25OHC. In our subsequent in vivo tests (short-term pharmacology) we confirmed the action of CF3-7α,25OHC. In that test, too, it reduced the count of white blood cells. CF3-7α,25OHC reduces the lymphocyte count as early as following the 4 mg/kg dose and the effect lasts for 24 hours following administration.

[5] = tested on: pro-inflammatory cytokine IL1β; assay: Cuprizone model: IL1β mRNA in cerebellum lysates by PCR
From the text: Identifying the mRNA levels of pro-inflammatory cytokine IL1β in mouse cerebellum lysates (Fig 11).

[6] = after 14 days of treatment during remyelination in the cuprizone model

C[C@H](CCCC(C)(C)O)[C@H]1CC[C@H]2[C@H]3[C@H](CC[C@]12C)[C@@]1(C)CC[C@H](O)CC1=C[C@]3(O)C(F)(F)F [CF3-7α,25OHC, cholestene-7β-trifluoromethyl,3β,7α,25-triol]
remyelination (Mbp expression) [1]: remyelinate quicker than slices not treated with anything; also recorded: remyelinate faster than the untreated slices | level of Ebi2 expression [2]: increases the level of Ebi2 expression | expression level of the synthesizing (Ch25h, Cyp7b1) and degrading (Hsd3b7) enzymes [3]: does not regulate the expression level | drop in eosinophils [4, 6]: 43% | drop in monocytes [4, 6]: 66% | drop in neutrophils [4, 6]: 14% | drop in the total number of white blood cells (total leukocyte count) ([4]; after 14 days of treatment during remyelination in the cuprizone model, compared to vehicle group): 51% | drop in lymphocytes (lymphocyte count in peripheral blood lower by) ([4]; after 14 days of treatment in the cuprizone model, CF3-7α,25OHC 20 mg/kg s.c., barbadin 0.3 mg/kg i.p., compared to vehicle group #3): 51% and 50% | number of white blood cells (leukocytes, lymphocytes, monocytes) ([4]; cuprizone model, group #5 (E)): went down; also recorded: substantially reduced | mRNA level of IL1β dropped by ([5]; cerebellum lysates, cuprizone model, compared to the group treated solely with vehicles): 28% | blood-brain barrier penetration ([5]; concluded from the IL1β effect in the cerebellum): penetrates the blood-brain barrier | pro-inflammatory cytokine IL1β in cerebellum lysates ([5]; cuprizone model, group #5): Reduction

— patent EP4497440A1, “USE OF 7-TRIFLUOROMETHYL-7ALPHA,25-DIHYDROXYCHOLESTEROL IN THE TREATMENT AND MODULATION OF AUTOIMMUNE AND INFLAMMATORY DISEASES OF THE NERVOUS SYSTEM AND NEURODEGENERATIVE DISEASES” (Gdanski Uniwersytet Medyczny, priority 2023, dated 2025)
